According to patent US11352322B2, “Cyclopropyl-amide compounds as dual LSD1/HDAC inhibitors” (Jubilant Epicore LLC, priority 2016, dated 2022):
Counter-ions that a name gives are not always drawn.

Tests used:
[1] = biological target: HDAC6 human recombinant enzyme (Homo sapiens (Human), UniProt Q9UBN7); assay: Histone Deacetylase Assay (BPS Biosciences), HDAC6; format: biochemical
From the text: Histone Deacetylase Assay (BPS Biosciences)
Histone deacetylase assay was done as per manufacturer's instructions.

[2] = Metabolic stability in liver microsomes, HLM; conditions: 1 μM, NADPH
Method: (§1) The microsomal suspension was prepared by adding liver microsomes to 100 mM potassium phosphate buffer (pH7.4) to give a final protein concentration of 0.5 mg/mL. The stock solution of NCE (10 mM in DMSO) was added to the microsomes to provide a final concentration of 1 μM. […] Samples were vortexed and centrifuged at 5,000 rpm for 10 min to remove proteins. Supernatant were analyzed on LC-MS/MS.

MM1S = assay: Anticancer activity: Alamar Blue assay, MM1S; format: cell-based; conditions: Homo sapiens, MM1.S, read-out: MM1S EC50
Method: Cells were seeded at 5000 cells/per well in 96-well tissue culture plate and incubated at 37° C./5% CO2. After 16-24 hours, fresh media was added to the wells. Compounds were then (1% DMSO conc.) added to the cells at 10 concentrations ranging from 10-0.0005 uM prepared in 3-fold serial dilutions. Cells were incubated for 68-72 h at 37° C./5% CO2. Alamar Blue™ reagent was added and incubated for 1-3 hours at 37° C./5% CO2. Plates were read on fluorescence reader at 540 nm excitation, 590 nm emission wave lengths.

[3] = Metabolic stability in liver microsomes, MLM; conditions: 1 μM, NADPH
Method: as §1

Sequence of HDAC6 human recombinant enzyme (Q9UBN7 whole entry): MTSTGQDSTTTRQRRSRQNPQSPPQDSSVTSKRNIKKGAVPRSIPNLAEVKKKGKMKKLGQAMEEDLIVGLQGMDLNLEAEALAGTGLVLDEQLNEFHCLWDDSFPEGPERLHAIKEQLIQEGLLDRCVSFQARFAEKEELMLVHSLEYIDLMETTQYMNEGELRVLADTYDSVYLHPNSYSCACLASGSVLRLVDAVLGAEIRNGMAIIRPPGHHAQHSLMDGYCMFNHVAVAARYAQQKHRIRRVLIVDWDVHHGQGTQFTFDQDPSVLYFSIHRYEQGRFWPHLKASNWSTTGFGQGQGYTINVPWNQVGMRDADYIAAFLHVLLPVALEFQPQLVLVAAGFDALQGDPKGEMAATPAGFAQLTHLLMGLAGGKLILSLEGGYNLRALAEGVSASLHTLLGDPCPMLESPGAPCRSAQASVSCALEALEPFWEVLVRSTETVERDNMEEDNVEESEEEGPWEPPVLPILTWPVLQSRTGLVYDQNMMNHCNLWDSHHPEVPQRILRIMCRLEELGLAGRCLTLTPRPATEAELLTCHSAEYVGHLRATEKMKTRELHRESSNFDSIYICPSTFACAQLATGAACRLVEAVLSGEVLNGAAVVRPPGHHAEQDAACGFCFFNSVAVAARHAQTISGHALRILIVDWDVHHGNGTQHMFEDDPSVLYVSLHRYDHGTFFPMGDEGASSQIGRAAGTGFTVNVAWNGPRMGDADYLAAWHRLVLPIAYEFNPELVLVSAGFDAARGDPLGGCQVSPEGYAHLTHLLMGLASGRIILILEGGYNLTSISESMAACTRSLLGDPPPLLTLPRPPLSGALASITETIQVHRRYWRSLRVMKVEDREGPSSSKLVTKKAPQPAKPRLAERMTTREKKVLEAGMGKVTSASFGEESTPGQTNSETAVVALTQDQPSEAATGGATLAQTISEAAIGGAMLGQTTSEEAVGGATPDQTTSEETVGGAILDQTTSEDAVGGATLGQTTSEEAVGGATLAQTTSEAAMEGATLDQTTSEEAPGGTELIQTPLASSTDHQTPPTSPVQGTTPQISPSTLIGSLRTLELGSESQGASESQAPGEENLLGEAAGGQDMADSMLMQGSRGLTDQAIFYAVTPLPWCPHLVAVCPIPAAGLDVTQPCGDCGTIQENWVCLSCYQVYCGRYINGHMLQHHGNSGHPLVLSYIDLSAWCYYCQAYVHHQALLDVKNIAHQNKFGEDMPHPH

Compound	IC50 [1]	Metabolic stability HLM % remaining in 30 min [2]	EC50 (MM1S)	Metabolic stability MLM % remaining in 30 min [3]
O=C(NO)c1cnc(N2CCC(CN[C@@H]3C[C@H]3c3ccc(F)cc3)CC2)nc1 [Example 20, 2-(4-((((1R,2S)-2-(4-fluorophenyl)cyclopropyl)amino)methyl)piperidin-1-yl)-N-hydroxypyrimidine-5-carboxamide TFA Salt]	72 nM	91%	3 nM	69%
O=C(NO)c1cnc(N2CCC(CN[C@H]3C[C@@H]3c3ccc(F)cc3)CC2)nc1 [Example 21, 2-(4-((((1S,2R)-2-(4-fluorophenyl)cyclopropyl)amino)methyl)piperidin-1-yl)-N-hydroxypyrimidine-5-carboxamide TFA Salt]	91 nM	86%	9 nM	51%
O=C(NO)c1ccc(CCCN2CCC(CNC3CC3c3cnn(-c4ccccc4)c3)CC2)cc1 (stereo not shown) [Example 68, N-hydroxy-4-(3-(4-(((2-(1-phenyl-1H-pyrazol-4-yl)cyclopropyl)amino)methyl)piperidin-1-yl)propyl)benzamide TFA Salt]	104 nM			
O=C(NO)c1ccc(CCCn2cnc(CNC3CC3c3ccc(F)c(F)c3)c2)cc1 (stereo not shown) [Example 73, 4-(3-(4-(((2-(3,4-difluorophenyl)cyclopropyl)amino)methyl)-1H-imidazol-1-yl)propyl)-N-hydroxybenzamide TFA Salt]		52%	540 nM	53%
O=C(NO)c1ccc(CC(=O)N2CCC(CNC3CC3c3ccccc3)CC2)cc1 (stereo not shown) [Example 84, N-hydroxy-4-(2-oxo-2-(4-(((2-phenylcyclopropyl)amino)methyl)piperidin-1-yl)ethyl)benzamide TFA Salt]	45 nM	78%	112 nM	40%
O=C(NO)c1ccc(CC(=O)N2CCC(CN[C@@H]3C[C@H]3c3ccccc3)CC2)cc1 [Example 84A, N-hydroxy-4-(2-oxo-2-(4-((((1R,2S)-2-phenylcyclopropyl)amino)methyl)piperidin-1-yl)ethyl)benzamide TFA Salt]	22 nM	78%	26 nM	41%
O=C(NO)c1ccc(CC(=O)N2CCC(CN[C@H]3C[C@@H]3c3ccccc3)CC2)cc1 [Example 84B, N-hydroxy-4-(2-oxo-2-(4-((((1S,2R)-2-phenylcyclopropyl)amino)methyl)piperidin-1-yl)ethyl)benzamide TFA Salt]	25 nM	75%	259 nM	45%
O=C(NO)c1ccc(CCS(=O)(=O)N2CCC(CNC3CC3c3ccccc3)CC2)cc1 (stereo not shown) [Example 88, N-hydroxy-4-(2-((4-(((2-phenylcyclopropyl)amino)methyl)piperidin-1-yl)sulfonyl)ethyl)benzamide TFA Salt]	77 nM			
O=C(NO)c1ccc(CN2CCN(C(=O)CNC3CC3c3ccccc3)CC2)cc1 (stereo not shown) [Example 91, N-hydroxy-4-((4-(2-((2-phenylcyclopropyl)amino)acetyl)piperazin-1-yl)methyl)benzamide TFA Salt]		85%	468 nM	79%
O=C(NO)c1ccc(CCC(=O)N2CCN(C(=O)CNC3CC3c3ccccc3)CC2)cc1 (stereo not shown) [Example 92, N-hydroxy-4-(3-oxo-3-(4-(2-((2-phenylcyclopropyl)amino)acetyl)piperazin-1-yl)propyl)benzamide TFA Salt]		95%	1400 nM	91%
O=C(NO)c1ccc(OCCCN2CCC(CNC3CC3c3ccccc3)CC2)cc1 (stereo not shown) [Example 100, N-hydroxy-4-(3-(4-(((2-phenylcyclopropyl)amino)methyl)piperidin-1-yl)propoxy)benzamide TFA Salt]		63%	17 nM	57%
O=C(NO)c1ccc(OCCCNC2CC2c2ccccc2)cc1 (stereo not shown) [Example 101, N-hydroxy-4-(3-((2-phenylcyclopropyl)amino)propoxy)benzamide TFA Salt]		59%	29 nM	29%
O=C(NO)c1cc2c(s1)CCN(C(=O)CNC1CC1c1ccc(F)cc1)C2 (stereo not shown) [Example 103, 5-(2-((2-(4-fluorophenyl)cyclopropyl)amino)acetyl)-N-hydroxy-4,5,6,7-tetrahydrothieno [3,2-c]pyridine-2-carboxamide TFA Salt]	41 nM	85%	45 nM	53%
O=C(NO)c1cc2c(s1)CCN(C(=O)CN[C@@H]1C[C@H]1c1ccc(F)cc1)C2 [Example 103A, 5-(2-(((1R,2S)-2-(4-fluorophenyl)cyclopropyl)amino)acetyl)-N-hydroxy-4,5,6,7-tetrahydrothieno[3,2-c]pyridine-2-carboxamide TFA Salt]	22 nM	87%	52 nM	68%
O=C(NO)c1cc2c(s1)CCN(C(=O)CN[C@H]1C[C@@H]1c1ccc(F)cc1)C2 [Example 103B, 5-(2-(((1S,2R)-2-(4-fluorophenyl)cyclopropyl)amino)acetyl)-N-hydroxy-4,5,6,7-tetrahydrothieno[3,2-c]pyridine-2-carboxamide TFA Salt]	36 nM	76%	15 nM	73%
O=C(NO)c1ccc2c(c1)CN(C(=O)CNC1CC1c1ccc(F)cc1)CC2 (stereo not shown) [Example 104, 2-(2-((2-(4-fluorophenyl)cyclopropyl)amino)acetyl)-N-hydroxy-1,2,3,4-tetrahydroisoquinoline-7-carboxamide TFA Salt]	32 nM	80%	269 nM	77%
O=C(NO)c1ccc2c(c1)CN(C(=O)CN[C@H]1C[C@@H]1c1ccc(F)cc1)CC2 [Example 104A, 2-(2-(((1S,2R)-2-(4-fluorophenyl)cyclopropyl)amino)acetyl)-N-hydroxy-1,2,3,4-tetrahydroisoquinoline-7-carboxamide TFA Salt]	53 nM	74%	183 nM	68%
O=C(NO)c1ccc2c(c1)CN(C(=O)CN[C@@H]1C[C@H]1c1ccc(F)cc1)CC2 [Example 104B, 2-(2-(((1R,2S)-2-(4-fluorophenyl)cyclopropyl)amino)acetyl)-N-hydroxy-1,2,3,4-tetrahydroisoquinoline-7-carboxamide TFA Salt]	45 nM	74%	374 nM	70%
O=C(NO)c1ccc2c(c1)CN(C(=O)CCCNC1CC1c1ccc(F)cc1)C2 (stereo not shown) [Example 108, 2-(4-((2-(4-fluorophenyl)cyclopropyl)amino)butanoyl)-N-hydroxyisoindoline-5-carboxamide TFA Salt]		> 95%	584 nM	85%
Nc1ccccc1NC(=O)c1ccc(CCCN2CCC(CNC3CC3c3ccccc3)CC2)cc1 (stereo not shown) [Example 121, N-(2-aminophenyl)-4-(3-(4-(((2-phenylcyclopropyl)amino)methyl)piperidin-1-yl)propyl)benzamide TFA Salt]		36%	3 nM	42%
Nc1ccccc1NC(=O)c1ccc(CCCN2CCC(CNC3CC3c3ccc(F)cc3)CC2)cc1 (stereo not shown) [Example 122, N-(2-aminophenyl)-4-(3-(4-(((2-(4-fluorophenyl)cyclopropyl)amino)methyl)piperidin-1-yl)propyl)benzamide TFA Salt]		77%	15 nM	72%
COc1ccc(C2CC2NCC2CCN(CCCc3ccc(C(=O)Nc4ccccc4N)cc3)CC2)cc1 (stereo not shown) [Example 123, N-(2-aminophenyl)-4-(3-(4-(((2-(4methoxyphenyl)cyclopropyl)amino)methyl)piperidin-1-yl)propyl)benzamide TFA Salt]		82%	9 nM	72%
Nc1ccccc1NC(=O)c1ccc(CCCN2CCC(CNC3CC3c3ccc(F)c(F)c3)CC2)cc1 (stereo not shown) [Example 124, N-(2-aminophenyl)-4-(3-(4-(((2-(3,4-difluorophenyl)cyclopropyl)amino)methyl)piperidin-1-yl)propyl)benzamide TFA Salt]		73%	14 nM	68%
Nc1ccccc1NC(=O)c1ccc(CCCN2CCC(CNC3CC3c3cnn(-c4ccccc4)c3)CC2)cc1 (stereo not shown) [Example 129, N-(2-aminophenyl)-4-(3-(4-(((2-(1-phenyl-1H-pyrazol-4-yl)cyclopropyl)amino)methyl)piperidin-1-yl)propyl)benzamide TFA Salt]	> 10000 nM			
Nc1ccccc1NC(=O)c1ccc(CCN2CCC(CNC3CC3c3ccccc3)CC2)cc1 (stereo not shown) [Example 139, N-(2-aminophenyl)-4-(2-(4-(((2-phenylcyclopropyl)amino)methyl)piperidin-1-yl)ethyl)benzamide TFA Salt]	> 10000 nM			
Nc1ccccc1NC(=O)c1cnc(CCCN2CCC(CNC3CC3c3ccccc3)CC2)s1 (stereo not shown) [Example 154, N-(2-aminophenyl)-2-(3-(4-(((2-phenylcyclopropyl)amino)methyl)piperidin-1-yl)propyl)thiazole-5-carboxamide TFA Salt]	> 10000 nM			
